# Structures can show the parent of a compound that is named as a salt.
# Biological target: USP7 (Homo sapiens, UniProt Q93009)
# Experiment: biochemical
# Parameters: Ub-AMC hydrolysis by recombinant USP7 (20 nM), 30 min pre-incubation, fluorescence read-out
# Conditions: read-out: % Inhibition at 50 μM
# Chain of USP7 (Q93009 whole entry): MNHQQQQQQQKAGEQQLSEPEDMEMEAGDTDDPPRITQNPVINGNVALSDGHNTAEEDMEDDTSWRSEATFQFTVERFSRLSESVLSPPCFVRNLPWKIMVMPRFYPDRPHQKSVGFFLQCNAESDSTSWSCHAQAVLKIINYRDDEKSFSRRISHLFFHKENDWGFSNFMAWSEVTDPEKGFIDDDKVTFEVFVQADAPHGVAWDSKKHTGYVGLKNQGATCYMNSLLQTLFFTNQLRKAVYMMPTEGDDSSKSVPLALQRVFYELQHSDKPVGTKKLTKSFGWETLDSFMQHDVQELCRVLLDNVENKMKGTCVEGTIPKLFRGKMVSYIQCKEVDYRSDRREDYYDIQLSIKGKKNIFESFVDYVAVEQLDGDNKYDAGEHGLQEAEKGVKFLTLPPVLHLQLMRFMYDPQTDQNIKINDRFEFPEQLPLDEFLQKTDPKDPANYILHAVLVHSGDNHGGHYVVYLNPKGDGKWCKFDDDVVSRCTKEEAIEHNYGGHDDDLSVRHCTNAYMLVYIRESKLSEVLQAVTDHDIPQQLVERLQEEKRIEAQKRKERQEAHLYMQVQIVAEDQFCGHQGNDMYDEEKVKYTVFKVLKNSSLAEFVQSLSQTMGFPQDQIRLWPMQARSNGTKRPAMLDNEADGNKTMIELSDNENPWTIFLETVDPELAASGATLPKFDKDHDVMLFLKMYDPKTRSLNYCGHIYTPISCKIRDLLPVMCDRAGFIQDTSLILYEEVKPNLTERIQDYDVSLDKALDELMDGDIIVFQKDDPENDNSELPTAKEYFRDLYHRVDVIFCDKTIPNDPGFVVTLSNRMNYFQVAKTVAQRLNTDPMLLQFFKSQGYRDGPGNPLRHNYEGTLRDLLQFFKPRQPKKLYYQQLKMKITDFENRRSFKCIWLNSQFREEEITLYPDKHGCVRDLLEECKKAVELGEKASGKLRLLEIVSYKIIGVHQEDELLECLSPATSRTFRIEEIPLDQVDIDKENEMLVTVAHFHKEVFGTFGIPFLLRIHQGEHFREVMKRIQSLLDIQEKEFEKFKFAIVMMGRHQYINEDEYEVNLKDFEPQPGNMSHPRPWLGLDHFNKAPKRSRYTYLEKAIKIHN
row,Structure (SMILES),inhibition at 50 µM [%]
1,CCC1=C[C@@H]2CN(C1)Cc1c([nH]c3ccccc13)[C@@](C(=O)OC)(c1cc3c(cc1OC)N(C)[C@H]1[C@@](O)(C(=O)OC)[C@H](OC(C)=O)[C@]4(CC)C=CCN5CC[C@]31[C@@H]54)C2 [Vinorelbine],45.3
2,Cc1scc2c1N(C(=O)CN1CCN(C)CC1)c1ccccc1NC2=O [Telenzepine 2HCl],< 5
3,CC12CC3CC(C)(C1)CC(N)(C3)C2 [Memantine HCl],< 5
4,CN(C)/N=N/c1[nH]cnc1C(N)=O [Dacarbazine],< 5
5,C[N+](C)(C)CCCCCCCCCC[N+](C)(C)C [Decamethonium 2Br],< 5
6,O=C(CCCN1CCC(O)(c2cccc(C(F)(F)F)c2)CC1)c1ccc(F)cc1 [Trifluperidol 2HCl],< 5
7,COc1ccc2c(c1)c(CC(=O)OCC(=O)O)c(C)n2C(=O)c1ccc(Cl)cc1 [Acemetacin],19.8
8,COc1cc2c(cc1OC)C(=O)C(CC1CCN(Cc3ccccc3)CC1)C2 (stereo not drawn) [Donepezil HCl],< 5
9,Cc1ccc(N(CC2=NCCN2)c2cccc(O)c2)cc1 [Phentolamine HCl],< 5
10,OCc1cc(C(O)CNCCCCCCOCCCCc2ccccc2)ccc1O (stereo not drawn) [Salmeterol],< 5
11,Nc1nc(N)nc(-c2cc(Cl)ccc2Cl)n1 [Irsogladine maleate],< 5
12,CC[C@@H]1C(=O)OC[C@@H]1Cc1cncn1C [Pilocarpine HCl],< 5
13,Cc1ncc([N+](=O)[O-])n1CC(C)O (stereo not drawn) [Secnidazole],< 5
14,CC(=O)O[C@@]12CO[C@@H]1C[C@H](O)[C@@]1(C)C(=O)[C@H](O)C3=C(C)[C@@H](OC(=O)[C@H](O)[C@@H](NC(=O)OC(C)(C)C)c4ccccc4)C[C@@](O)([C@@H](OC(=O)c4ccccc4)[C@H]21)C3(C)C [Docetaxil],< 5
15,Cc1[nH]c(=O)c(C#N)cc1-c1ccncc1 [Milrinone],< 5
16,CC[C@]1(O)C[C@H]2CN(CCc3c([nH]c4ccccc34)[C@@](C(=O)OC)(c3cc4c(cc3OC)N(C=O)[C@H]3[C@@](O)(C(=O)OC)[C@H](OC(C)=O)[C@]5(CC)C=CCN6CC[C@]43[C@@H]65)C2)C1 [Vincristine sulfate],< 5
17,CC(=O)O[C@H]1C[C@@H]2CC[C@@H]3[C@H](CC[C@@]4(C)[C@H]3C[C@H]([N+]3(C)CCCCC3)[C@@H]4OC(C)=O)[C@@]2(C)C[C@@H]1[N+]1(C)CCCCC1 [Pancuronium Br],< 5
18,CCC(NC(C)C)C(O)c1ccc(O)c2[nH]c(=O)ccc12 (stereo not drawn) [Procaterol hcl],< 5
19,CN(C)CCC[C@@]1(c2ccc(F)cc2)OCc2cc(C#N)ccc21 [Escitalopram],< 5
20,C=C1C[C@H]2[C@@H]3C=C(C)C4=CC(=O)CC[C@]4(C)[C@H]3CC[C@]2(C)[C@@]1(OC(C)=O)C(C)=O [Melengestrol acetate],< 5
21,CCCCc1oc2ccccc2c1C(=O)c1cc(I)c(OCCN(CC)CC)c(I)c1 [Amiodarone],< 5
22,Nc1ccn([C@@H]2O[C@H](CO)[C@@H](O)[C@@H]2O)c(=O)n1 [Cytarabine],< 5
23,O=C(O)c1cc(-c2ccc(F)cc2F)ccc1O [Diflunisal],31.5

row,Structure (SMILES),inhibition at 50 µM [%]
1,CC[C@@]1(O)C(=O)OCc2c1cc1n(c2=O)Cc2cc3ccccc3nc2-1 [Camptothecin],< 5
2,COC(=O)C1=C(C)NC(C)=C(C(=O)OCCN(C)Cc2ccccc2)C1c1cccc([N+](=O)[O-])c1 (stereo not drawn) [Nicardipine],< 5
3,COc1ccc2cc(CCC(C)=O)ccc2c1 [Nabumetone],< 5
4,O=C(c1ccc(OCCN2CCCCC2)cc1)c1c(-c2ccc(O)cc2)sc2cc(O)ccc12 [Raloxifene HCl],< 5
5,C[N+]1(C)[C@@H]2C[C@@H](OC(=O)C(O)(c3cccs3)c3cccs3)C[C@H]1[C@@H]1O[C@@H]12 [Tiotropium Br],< 5
6,CCCc1nc(C(C)(C)O)c(C(=O)O)n1Cc1ccc(-c2ccccc2-c2nnn[nH]2)cc1 [Olmesartan],< 5
7,CCCCNC(=O)NS(=O)(=O)c1ccc(C)cc1 [Tolbutamide],< 5
8,C[C@H]1[C@H](C)CC[C@]2(C(=O)O)CC[C@]3(C)C(=CC[C@@H]4[C@@]5(C)C[C@@H](O)[C@H](O)C(C)(C)[C@@H]5CC[C@]43C)[C@H]12 [Corosolic acid],43.2
9,C[C@@H]1O[C@@H](O[C@H]2C[C@@H](O)[C@]3(CO)[C@H]4[C@H](O)C[C@]5(C)[C@@H](C6=CC(=O)OC6)CC[C@]5(O)[C@@H]4CC[C@]3(O)C2)[C@H](O)[C@H](O)[C@H]1O [Ouabain],< 5
10,C#C[C@]1(O)CC[C@H]2[C@@H]3CCC4=CC(=O)CCC4=C3C=C[C@@]21CC [Gestrinone],< 5
11,CC1(C)CC[C@]2(C(=O)O)CC[C@]3(C)C(=CC[C@@H]4[C@@]5(C)C[C@H](O)[C@H](O)[C@@](C)(CO)[C@@H]5CC[C@]43C)[C@@H]2C1 [Bayogenin],< 5
12,CC1(C)[C@H](C(=O)O)N2C(=O)C[C@H]2S1(=O)=O [Sulbactam],< 5
13,O=C(NCC1CCCCN1)c1cc(OCC(F)(F)F)ccc1OCC(F)(F)F (stereo not drawn) [Flecainide],< 5
14,CCC[S+]([O-])c1ccc2[nH]c(NC(=O)OC)nc2c1 (stereo not drawn) [Ricobendazole],< 5
15,CO[C@@H]1[C@@H](OC(N)=O)[C@@H](O)[C@H](Oc2ccc3c(O)c(NC(=O)c4ccc(O)c(CC=C(C)C)c4)c(=O)oc3c2C)OC1(C)C [Novobiocin Na],< 5
16,Clc1ccc(Nc2nnc(Cc3ccncc3)c3ccccc23)cc1 [Vatalanib],< 5
17,COc1cc2c(cc1OC)-c1c/c(=N\c3c(C)cc(C)cc3C)n(C)c(=O)n1CC2 [Trequinsin HCl],< 5
18,COc1ccc(CCN(C)CCCC(C#N)(c2ccc(OC)c(OC)c2)C(C)C)cc1OC (stereo not drawn) [Verapamil],< 5
19,CO[C@@]12[C@H](COC(N)=O)C3=C(C(=O)C(C)=C(N)C3=O)N1C[C@@H]1N[C@@H]12 [Mitomycin c],31.5
20,CCC(C)(C)c1ccc(CC(C)CN2C[C@@H](C)O[C@@H](C)C2)cc1 (stereo partly drawn) [Amorolfine],< 5
21,CC(=O)SCC(Cc1ccccc1)C(=O)NCC(=O)OCc1ccccc1 (stereo not drawn) [Racecadotril],< 5
22,C[C@H](N[C@@H](CCc1ccccc1)C(=O)O)C(=O)N1CCC[C@H]1C(=O)O [Enalaprilat],< 5
23,CC(=O)NC[C@H]1CN(c2ccc(N3CCOCC3)c(F)c2)C(=O)O1 [Linezolid],< 5

row,Structure (SMILES),inhibition at 50 µM [%]
1,CN1C(C(=O)Nc2ccccn2)=C(O)c2ccccc2S1(=O)=O [Piroxicam],< 5
2,CO[C@H]1C[C@@H]2CC[C@@H](C)[C@@](O)(O2)C(=O)C(=O)N2CCCC[C@H]2C(=O)O[C@H]([C@H](C)C[C@@H]2CC[C@@H](O)[C@H](OC)C2)CC(=O)[C@H](C)/C=C(\C)[C@@H](O)[C@@H](OC)C(=O)[C@H](C)C[C@H](C)/C=C/C=C/C=C/1C [Rapamycin],< 5
3,N[C@@H](Cc1ccc(O)c(O)c1)C(=O)O [Levodopa],< 5
4,COc1cccc2c1C(=O)c1c(O)c3c(c(O)c1C2=O)C[C@@](O)(C(C)=O)C[C@@H]3O[C@H]1C[C@H](N)[C@H](O)[C@H](C)O1 [Daunorubicin HCl],< 5
5,C#Cc1cccc(Nc2ncnc3cc(OCCOC)c(OCCOC)cc23)c1 [Erlotinib],< 5
6,Cc1cnc(NC(=O)C2=C(O)c3ccccc3S(=O)(=O)N2C)s1 [Meloxicam],< 5
7,CC(=O)S[C@@H]1CC2=CC(=O)CC[C@]2(C)[C@H]2CC[C@@]3(C)[C@@H](CC[C@@]34CCC(=O)O4)[C@H]12 [Spironolactone],36.4
8,COc1c(C)c2c(c(O)c1C/C=C(\C)CCC(=O)O)C(=O)OC2 [Mycophenolic acid],< 5
9,COc1cc(NC(C)CCCN)c2ncccc2c1 (stereo not drawn) [Primaquine phosphate],< 5
10,CN1CCN(CCCN2c3ccccc3Sc3ccc(C(F)(F)F)cc32)CC1 [Trifluoperazine 2HCl],< 5
11,CO[C@H]1/C=C/O[C@@]2(C)Oc3c(C)c(O)c4c(O)c(c(/C=N/N5CCN(C)CC5)c(O)c4c3C2=O)NC(=O)/C(C)=C\C=C\[C@H](C)[C@H](O)[C@@H](C)[C@@H](O)[C@@H](C)[C@H](OC(C)=O)[C@@H]1C [Rifampicin],< 5
12,Cc1ccc(C(=O)Nc2ccc(S(=O)(=O)O)c3cc(S(=O)(=O)O)cc(S(=O)(=O)O)c23)cc1NC(=O)c1cccc(NC(=O)Nc2cccc(C(=O)Nc3cc(C(=O)Nc4ccc(S(=O)(=O)O)c5cc(S(=O)(=O)O)cc(S(=O)(=O)O)c45)ccc3C)c2)c1 [Suramin sodium],< 5
13,COc1cc2nc(N3CCN(C(=O)C4COc5ccccc5O4)CC3)nc(N)c2cc1OC (stereo not drawn) [Doxazosin mesylate],< 5
14,COc1ccc(C(CN(C)C)C2(O)CCCCC2)cc1 (stereo not drawn) [Venlafaxine HCl],< 5
15,COCCc1ccc(OCC(O)CNC(C)C)cc1 (stereo not drawn) [Metoprolol tartrate],< 5
16,CN(C)CCCOc1nn(Cc2ccccc2)c2ccccc12 [Benzydamine],< 5
17,COc1ccc(C(=O)c2c(C)n(CCN3CCOCC3)c3ccccc23)cc1 [Pravadoline],< 5
18,Cn1c(=O)c2c(ncn2CC2OCCO2)n(C)c1=O [Doxofylline],< 5
19,C[C@@H]1C(=O)O[C@H]2C[C@@]34[C@H]5C[C@@H](C(C)(C)C)[C@]36[C@@H](OC(=O)[C@@H]6O)O[C@@]4(C(=O)O5)[C@]21O [Ginkgolide a],< 5
20,O=C1CCc2ccc(OCCCCN3CCN(c4cccc(Cl)c4Cl)CC3)cc2N1 [Aripiprazole],< 5
21,CCCC[N+]1(C)[C@@H]2C[C@@H](OC(=O)[C@H](CO)c3ccccc3)C[C@H]1[C@@H]1O[C@@H]12 (stereo partly drawn) [Scopolamine n-butylbromide],< 5
22,N[C@@H](Cc1ccc(N(CCCl)CCCl)cc1)C(=O)O [Melphalan],< 5
23,C[C@]12CC[C@@H]3c4ccc(O)cc4C[C@@H](CCCCCCCCC[S+]([O-])CCCC(F)(F)C(F)(F)F)[C@H]3[C@@H]1CC[C@@H]2O (stereo partly drawn) [Fulvestrant],< 5
